Reference: patent publication US20190202836A1, “SELECTIVE DUAL INHIBITORS OF PI3 DELTA AND GAMMA PROTEIN KINASES” (Rhizen Pharmaceuticals SA, priority 2014, published 2019)

Key:
[1] = Metabolic stability in dog liver microsomes; assay type: in vitro ADME
[2] = Plasma protein binding (equilibrium dialysis), dog; assay type: in vitro ADME; conditions: pH 7.4, 37° C.
Description: Below is provided the procedure for measuring plasma protein binding (using an equilibrium dialysis method). 745 μL of plasma was transferred into a 2 ml micro centrifuge tube. To that 5 μL of Compound A1 (150 μM) was added. Samples were mixed in the table top vortexer for 2 minutes. 50 μL plasma (n=2) was transferred in a pre-labeled 1.5 mL micro centrifuge tube treated as 0 hour sample.
The remaining 650 μL plasma sample were incubated for 30 minutes at 37° C. in a water bath. After 30 minute incubation, 50 μL plasma (n=2) was removed in a pre-labelled 1.5 mL micro centrifuge tube treated as 0.5 hour sample. 200 μL of the plasma sample (n=2) was transferred into the sample chamber which was indicated by the red ring. The red insert was placed into the base plate and 350 μL of buffer was transferred into the buffer chamber. Plates were incubated at 37° C. at approximately 100 RPM on an orbital shaker or 20 RPM on an up-and-down shaker for 4 hours. 50 μL of post dialysis-sample from the buffer and the plasma chambers were transferred into a pre-labelled micro centrifuged tube. 50 μL of plasma was added to the buffer samples and an equal volume of buffer (KH2PO4 Buffer pH 7.4) to the collected plasma samples. 150 μL of methanol containing internal standard (Tolbutamide 250 ng/ml) was added to precipitate the protein and release compound. […]

PI3Kγ = PI3Kγ (Homo sapiens, UniProt P48736); test: Assay 1: Fluorescent (HTRF) determination of PI3 kinase enzyme activity, PI3Kγ; assay type: biochemical; conditions: read-out: IC50 (nM) PI3Kγ
Excerpt: Phosphoinositide 3 kinases (PI3K) belong to a class of lipid kinases that play a critical role in the regulation of several key cellular processes. The PI3K are capable of phosphorylating the 3-hydroxy position of phosphoinositols thereby generating second messengers involved in downstream signaling events. The homogenous time resolved fluorescence (HTRF) assay allows detection of 3,4,5-triphosphate (PIPS) formed as a result of phosphorylation of phosphotidylinositol 4,5-biphosphate (PIP2) by PI3K isoforms such as α, β, γ or δ.
PI3K isoform activity for α, β, γ or δ was determined using a PI3K human HTRF™ Assay Kit (Millipore, Billerica, Mass.) with modifications. All incubations were carried out at room temperature. 0.5 μl of 40× inhibitor (in 100% DMSO) or 100% DMSO were added to each well of a 384-well white plate (Greiner Bio-One, Monroe, N.C.) containing 14.5 μl 1× reaction buffer/PIP2 (10 mM MgCl2, 5 mM DTT, 1.38 μM PIP2) mix with or without enzyme, followed by 5 μl/well of 400 μM ATP and incubated for an additional 30 minutes. The reaction was terminated by adding 5 μl/well stop solution (Millipore, Billerica, Mass.). 5 μl of detection mix (Millipore, Billerica, Mass.) was then added to each well and incubated for 6-18 hours in the dark. HRTF ratio was measured on a microplate reader (BMG Labtech., Germany) at an excitation wavelength of 337 nm and emission wavelengths of 665 and 615 nm with an integration time of 400 msec counting delay of 50 msec.

[3] = system: T-lymphoma (MOLT-4, Jurkat, CCRF-CEM, Hut-78 and HuT-102) cells; test: Assay 2: In vitro cell proliferation assay in leukemic cell lines (MTT); assay type: cell-based
Description: Growth inhibition assays were carried out using 10% FBS supplemented media. Cells were seeded at a concentration of 5000-20,000 cells/well in a 96-well plate. Test compounds at a concentration ranging from 0.01 to 10000 nM were added after 24 hours. Growth was assessed using the 3-[4,5-dimethylthiazol-2-yl]-2,5-diphenyltetrazolium bromide (MTT) dye reduction test at 0 hour (prior to the addition of the test compound) and 72 hours after the addition of test compound. Absorbance was read on a Fluostar Optima (BMG Labtech, Germany) at a wavelength of 450 nm. Data were analysed using GraphPad Prism and percent inhibition due to the test compound compared to the control was calculated accordingly.

[4] = system: pAKT in T-lymphoma (MOLT-4, Jurkat, CCRF-CEM and Hut-78) cell lines; test: Assay 3: Inhibition of AKT phosphorylation in leukemic cell lines; assay type: cell-based; conditions: 48 hours, Western Blotting, range over the cell lines, read-out: EC50, reduction in pAKT expression
Description: MOLT-4, Jurkat, CCRF-CEM, and Hut-78 cells were incubated with desired concentrations of compound for 48 hours. Cells were lysed and pAKT determined by Western Blotting. Bands were quantified using ImageJ and normalized to actin.

PI3K beta = target: T1, PI3K beta (Mus musculus, UniProt Q8BTI9); test: Assay 4A2: LPA induced AktS473 phosphorylation in 3T3 fibroblasts; assay type: cell-based; conditions: LPA 5 μM, read-out: Cellular IC50 PI3K beta (LPA induced pAKT in 3T3 fibroblasts)
T1 construct: endogenous in cells; host or cells: 3T3 fibroblasts
Description: The objective of this study was to determine the effect of Compound A1 on PI3Kβ kinase mediated LPA induced AktS473 phosphorylation in 3T3 fibroblasts.
3T3 cells were treated with desired concentrations of the test compound for 15 minutes. 1 ml of 2× LPA was added such that the final concentration was 5 μM and incubated for 5 minutes.
Media was discarded and washed with 1 ml of ice-cold 1× PBS.
250 μl of cell lysis buffer was added and incubated on ice for 30 minutes.
Samples were centrifuged and supernatant was maintained at −80° C. until analysis.
Samples were analyzed by Western Blotting using pAKT (S473) as the primary and anti-rabbit IgG-HRP as a secondary antibody.
Intensity of the bands was determined using ImageJ 1.42q (NIH, USA) and normalized to Actin (loading control). Data was plotted using GraphPad Prism (Version 5.02).

TNFα = test: Assay 6A: Cytokine assay in human PBMC, LPS induced TNFα; assay type: cell-based; conditions: LPS 1 μg/ml, 6 hours, 2-3 independent experiments, read-out: EC50, antigen-induced TNFα
Description: The objective of this study was to assess the inhibitory potential of Compound A1 on antigen-induced cytokine release in human PBMC
• Heparinized human whole blood was diluted 1:1 with PBS, over laid on leukocyte separation medium and centrifuged at 400 g for 40 minutes. • Buffy layer was removed and washed with PBS • 0.15*10^6 of PBMCs were plated in 100 μl per well in RPMI media and incubated for 2 h. • 50 μl of 3× of the compound dilution in media was added and incubated for 15 min. • TNFα—induced with 50 μl of LPS in RPMI such that final concentration was 1 μg/ml. Supernatant was collected at 6 hours. • IL-2-induced with 50 μl of PHA in RPMI such that final concentration was 20 μg/ml. Supernatant was collected at 24 hours. • IL-4-induced with 50 μl of PHA in RPMI such that final concentration was 20 μg/ml.
EC50 values were calculated from 2-3 independent experiments.

PI3Kγ, sequence (P48736 whole entry, canonical isoform): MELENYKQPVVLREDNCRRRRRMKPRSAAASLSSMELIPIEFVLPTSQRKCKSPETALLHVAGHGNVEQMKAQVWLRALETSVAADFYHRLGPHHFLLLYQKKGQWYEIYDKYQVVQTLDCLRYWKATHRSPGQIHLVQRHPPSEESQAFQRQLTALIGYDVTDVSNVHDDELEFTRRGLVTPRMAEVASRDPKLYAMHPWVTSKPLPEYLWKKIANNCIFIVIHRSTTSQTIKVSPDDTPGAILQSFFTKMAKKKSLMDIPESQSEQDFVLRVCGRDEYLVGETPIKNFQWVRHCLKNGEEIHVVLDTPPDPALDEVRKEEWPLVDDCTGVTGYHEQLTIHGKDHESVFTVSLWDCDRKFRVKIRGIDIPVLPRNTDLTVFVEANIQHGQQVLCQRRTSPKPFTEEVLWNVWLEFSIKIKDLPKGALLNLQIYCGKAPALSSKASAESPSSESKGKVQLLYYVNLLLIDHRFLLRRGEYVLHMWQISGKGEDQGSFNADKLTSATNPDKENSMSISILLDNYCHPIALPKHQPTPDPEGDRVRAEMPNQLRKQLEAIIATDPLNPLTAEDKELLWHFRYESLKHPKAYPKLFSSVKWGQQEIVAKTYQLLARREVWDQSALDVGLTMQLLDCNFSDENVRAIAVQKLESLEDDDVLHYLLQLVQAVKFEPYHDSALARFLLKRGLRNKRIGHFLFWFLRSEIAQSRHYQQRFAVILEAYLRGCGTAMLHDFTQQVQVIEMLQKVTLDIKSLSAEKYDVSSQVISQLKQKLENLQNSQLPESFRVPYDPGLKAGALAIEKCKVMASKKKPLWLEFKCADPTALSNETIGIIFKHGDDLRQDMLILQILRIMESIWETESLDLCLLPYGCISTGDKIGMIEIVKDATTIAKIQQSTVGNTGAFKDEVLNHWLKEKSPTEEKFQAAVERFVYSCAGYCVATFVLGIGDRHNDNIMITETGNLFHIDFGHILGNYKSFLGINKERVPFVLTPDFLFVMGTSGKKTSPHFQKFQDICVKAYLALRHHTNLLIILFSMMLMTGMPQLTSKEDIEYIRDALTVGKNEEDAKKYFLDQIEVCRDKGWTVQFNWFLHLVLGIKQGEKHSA
T1 sequence (Q8BTI9 whole entry): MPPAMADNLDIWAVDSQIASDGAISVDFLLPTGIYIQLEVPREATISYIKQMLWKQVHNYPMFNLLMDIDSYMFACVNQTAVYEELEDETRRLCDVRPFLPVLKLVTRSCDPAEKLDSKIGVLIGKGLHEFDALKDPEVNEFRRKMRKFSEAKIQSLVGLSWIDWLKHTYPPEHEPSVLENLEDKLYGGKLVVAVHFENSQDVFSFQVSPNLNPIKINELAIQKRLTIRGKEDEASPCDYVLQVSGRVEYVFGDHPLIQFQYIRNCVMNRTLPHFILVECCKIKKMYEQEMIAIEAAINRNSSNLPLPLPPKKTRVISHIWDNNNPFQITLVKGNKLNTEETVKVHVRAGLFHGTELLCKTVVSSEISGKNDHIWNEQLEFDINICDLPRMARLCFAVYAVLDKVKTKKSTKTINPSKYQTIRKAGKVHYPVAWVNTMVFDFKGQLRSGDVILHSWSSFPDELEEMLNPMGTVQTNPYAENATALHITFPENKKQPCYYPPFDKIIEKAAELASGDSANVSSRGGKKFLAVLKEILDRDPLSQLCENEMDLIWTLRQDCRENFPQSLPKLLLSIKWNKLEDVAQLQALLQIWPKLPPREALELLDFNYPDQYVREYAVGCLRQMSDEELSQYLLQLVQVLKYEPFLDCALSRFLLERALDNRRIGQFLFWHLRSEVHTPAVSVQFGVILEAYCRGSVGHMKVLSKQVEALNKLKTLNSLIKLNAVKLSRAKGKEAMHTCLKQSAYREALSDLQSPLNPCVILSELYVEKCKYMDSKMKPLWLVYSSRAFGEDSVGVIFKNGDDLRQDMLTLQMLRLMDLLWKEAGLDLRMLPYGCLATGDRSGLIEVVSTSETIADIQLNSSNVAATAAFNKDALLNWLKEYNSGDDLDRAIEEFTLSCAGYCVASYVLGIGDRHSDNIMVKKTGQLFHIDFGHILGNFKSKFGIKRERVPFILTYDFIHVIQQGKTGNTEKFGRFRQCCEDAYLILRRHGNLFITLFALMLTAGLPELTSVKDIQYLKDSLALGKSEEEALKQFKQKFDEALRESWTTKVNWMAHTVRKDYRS
T1 sequence (P26450 whole entry partner): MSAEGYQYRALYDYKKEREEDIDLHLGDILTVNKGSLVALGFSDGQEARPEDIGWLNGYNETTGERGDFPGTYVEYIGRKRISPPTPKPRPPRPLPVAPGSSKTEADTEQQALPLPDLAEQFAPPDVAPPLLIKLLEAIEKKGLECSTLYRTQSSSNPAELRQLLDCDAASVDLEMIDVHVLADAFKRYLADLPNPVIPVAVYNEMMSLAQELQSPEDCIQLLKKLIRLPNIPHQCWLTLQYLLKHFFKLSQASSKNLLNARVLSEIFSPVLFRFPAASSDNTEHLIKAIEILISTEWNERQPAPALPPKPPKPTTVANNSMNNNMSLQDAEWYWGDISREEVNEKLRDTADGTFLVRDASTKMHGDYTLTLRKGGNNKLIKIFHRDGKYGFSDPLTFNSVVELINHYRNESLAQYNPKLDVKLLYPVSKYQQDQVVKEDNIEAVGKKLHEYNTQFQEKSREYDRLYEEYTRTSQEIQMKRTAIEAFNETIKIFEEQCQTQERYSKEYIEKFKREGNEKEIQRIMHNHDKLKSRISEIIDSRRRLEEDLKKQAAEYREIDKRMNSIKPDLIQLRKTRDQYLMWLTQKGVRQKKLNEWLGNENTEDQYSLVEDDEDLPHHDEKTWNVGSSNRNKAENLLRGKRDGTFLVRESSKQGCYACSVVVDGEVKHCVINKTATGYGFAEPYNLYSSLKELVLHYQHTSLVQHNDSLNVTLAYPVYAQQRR

For `COc1ccc(-c2nn([C@@H](C)c3oc4cccc(F)c4c(=O)c3-c3cccc(F)c3)c3ncnc(N)c23)cc1NS(C)(=O)=O` [Compound A1, (S)—N-(5-(4-amino-1-(1-(5-fluoro-3-(3-fluorophenyl)-4-oxo-4H-chromen-2-yl)ethyl)-1H-pyrazolo[3,4-d]pyrimidin-3-yl)-2-methoxyphenyl)methanesulfonamide], the “Metabolic stability in liver microsomes (percent parent compound remaining), Dog” value [1] was 83.5%, the fraction unbound at 4 h, 1 μM [2] was 0.0415 and the IC50 (PI3Kγ) was 48.7 nM. The GI50 ([3]; MOLT-4, Jurkat, CCRF-CEM, Hut-78 and HuT-102, MTT, 72 hours, range over the cell lines, read-out: GI50, reduction in T-lymphoma cell viability) was 2500 to 12800 nM, the “cytotoxicity over the 72 hour incubation period” value ([3]; T-lymphoma cell lines, 72 hour incubation) was “did not display any apparent cytotoxicity” and the EC50 [4] was 20 to 1600 nM. It also gave an IC50 (PI3K beta) of 1320 nM and an EC50 (TNFα) of 7.1 nM.
